Tested on: reserpine-induced tremors
Assay: Reserpine-induced tremors in rats (tremor monitor power spectra)
Assay type: in vivo, rat
Settings: for effect on reserpine-induced tremors in pilot studies: rats, L-DOPA with benserazide
From the text: Parkinson's disease is associated with severe dopamine deficiency caused by neurodegeneration of dopaminergic cell bodies residing in Substantia Nigra pars compacta. As alpha6 nAChRs are enriched in the nigrostriatal dopamine pathway, activating this receptor may ameliorate symptoms in nigro-striatal dopamine deficiency models. Reserpine injections to rodents result in depletion of monoamines in the nigro-striatal dopamine pathway, resulting in catalepsy and tremors. Both behaviours can be quantified using dedicated tremor boxes.
Six groups of male Sprague Dawley rats (250-300 grams) were subjected to the following treatment schedules, and effects on power spectra, assessed in automated tremor monitors were evaluated for 30 minutes: • Vehicle+vehicle • Vehicle+reserpine (1 mg/kg) • 9-Methyl-3-pyridin-3-yl-3,9-diaza-bicyclo[3.3.1]nonane (0.1 mg/kg)+reserpine (1 mg/kg) • 9-Methyl-3-pyridin-3-yl-3,9-diaza-bicyclo[3.3.1]nonane (1.0 mg/kg)+reserpine (1 mg/kg) • L-DOPA (100 mg/kg)+reserpine (1 mg/kg) • 9-Methyl-3-pyridin-3-yl-3,9-diaza-bicyclo[3.3.1]nonane (1.0 mg/kg)+L-DOPA (100 mg/kg)+reserpine (1 mg/kg)
Reserpine was pre-treated i.v. 60 minutes prior to test start in a dose volume of 2 ml/kg. 9-Methyl-3-pyridin-3-yl-3,9-diaza-bicyclo[3.3.1]nonane was pre-treated s.c. 45 minutes prior to test start in a dose volume of 1 ml/kg. The dose of 9-methyl-3-pyridin-3-yl-3,9-diaza-bicyclo[3.3.1]nonane was based on 3H-epibatidin displacement studies showing half maximal displacement of specific binding of 3H-epibatidin in doses equaling 0.15 mg/kg in rats. L-DOPA was pre-treated i.p. 30 minutes prior to test start in a dose volume of 5 ml/kg. […] All animals dosed with L-DOPA was also dosed with the peripherally acting decarboxylase inhibitor Benserazide to prevent the peripheral break down of L-DOPA (benserazide: 50 mg/kg, s.c., 30 min. prior to test start in a dose volume of 1 ml/kg).

[1] = reserpine 1 mg/kg i.v., compound 0.1 and 1.0 mg/kg s.c., L-DOPA 100 mg/kg i.p. + benserazide

Row | SMILES | activity per se of the L-DOPA dose in pilot studies (pilot studies, L-DOPA 100 mg/kg i.p.) | effect on reserpine-induced tremors in pilot studies (pilot studies) | effect on reserpine-induced tremors, AUC 20-43 Hz (reserpine 1 mg/kg i.v., L-DOPA 100 mg/kg i.p. + benserazide) | effect on reserpine-induced tremors, AUC 40-63 Hz [1] | reversal of reserpine-induced reduction of low frequency movements (catalepsy), AUC 3-13 Hz [1]
1 | N[C@@H](Cc1ccc(O)c(O)c1)C(=O)O [L-DOPA] | marginal activity per se | reverse reserpine-induced tremors | without exerting any effects | reduces reserpine-induced tremors | Neither threshold dose of L-DOPA, nor 9-methyl-3-pyridin-3-yl-3,9-diaza-bicyclo[3.3.1]nonane or the combination of the two, was able to reverse this reduction
2 | CN1CCc2cccc3c2[C@H]1Cc1ccc(O)c(O)c1-3 [apomorphine] |  | reverse reserpine-induced tremors |  |  | 

Reference: patent publication US20180311238A1, “Selective Agonist Of a6 Containing nAChRs” (Saniona A/S, priority 2017, published 2018)
